Data taken from paper PMC5464773 (eLife, 2017).
Read-outs that look alike come from different tables or passages of the source.

Legend:
[1] = test system: BCR-ABL-expressing B-lineage acute lymphoblastic leukemia cells dependent on Mcl-1; details: iBH3 fits Mcl-1, sigmoidal dose-response (variable slope); for Bottom (best-fit value) / Top (best-fit value): fit of 3 replicates
Protocol: (§1) As an additional test for on-pathway activity, we measured cytochrome c release in the same engineered cell lines in response to peptide treatment, using iBH3 profiling ([Ryan et al., 2016]).
(§2) The creation and characterization of the BCR-ABL-expressing B-lineage acute lymphoblastic leukemia suspension cell lines with engineered dependencies on human versions of anti-apoptotic genes is detailed in [Koss et al. (2016)]). Cells were grown in RPMI (Life Technologies, Carlsbad, CA) with 10% fetal bovine serum, 2 mM L-glutamine, 10 mL/L 100x Pen/Strep (Life Technologies # 15140122), 25 mM HEPES and 10 mL/L 100x NEAA (Life Technologies, 11140050). The adherent cell lines PC-3 (RRID: CVCL_0035) and SF295 (RRID: CVCL_1690) are from the NCI60 panel ([Lorenzi et al., 2009]) and were grown in RPMI (Life Technologies) with 10% fetal bovine serum, 2 mM L-glutamine and 10 mL/L 100x Pen/Strep (Life Technologies # 15140122 ). Cell line identities were confirmed by STR profiling. The Lookout Mycoplasma PCR detection kit (Sigma) was used to detect mycoplasma infection.
(§3) Cells were suspended in MEB buffer (150 mM mannitol, 50 mM KCl, 10 mM HEPES, 5 mM succinic acid, 20 μM EGTA, 20 μM EDTA, 0.1% BSA, final pH 7.4) at 0.5*10^6 cells/mL (adherent lines) or 2 *10^6 cells/mL (suspension lines). Cell suspension was added to a 384 non-binding well plate (10 μL/well) containing peptides at 2X final concentration in MEB with 20 μg/mL digitonin. Plates were incubated at 25°C for 1 hr. To terminate exposure, 10 μL of 4% formaldehyde in PBS was added to each well, plates were incubated for 10 min before addition of 10 μL N2 buffer (1.7M Tris, 1.25M glycine, pH 9.1) for 5 min. 10 μL of staining buffer (2% Tween20, 10% BSA, PBS) containing 10 μg/mL Hoechst 33342 and 1.25 μg/mL anti-cytochrome c Alexa647 conjugate (BioLegend clone 6H2.B4) was added to each well before sealing the plate and shaking overnight. The median fluorescence of the cytochrome c channel of Hoechst positive singlets was recorded by an IntelliCyt iQue Screener Plus. Cytochrome c release was determined by normalizing the median fluorescence intensity (MFI) data to positive control wells (Alamethicin) and negative control wells (DMSO) as follows: Cytochromecrelease=1−(MFIsample−MFIAlamethicin)/(MFIDMSO−MFIAlamethicin)

[2] = test system: BCR-ABL-expressing B-lineage acute lymphoblastic leukemia cells dependent on Bfl-1; details: for Bottom (best-fit value) / Top (best-fit value): fit of 3 replicates; for cytochrome c release pattern in iBH3: low concentrations, highly primed cells of known anti-apoptotic protein dependency
Protocol: as §1, §2, §3

[3] = test system: BCR-ABL-expressing B-lineage acute lymphoblastic leukemia cells dependent on Mcl-1; assay: BH3 profiling, mitochondrial depolarization (JC-1) in permeabilized cells; type: cell-based; details: BH3 profiling fits Mcl-1, sigmoidal dose-response (variable slope); for Top (best-fit value): constrained (Top < 100 or Top > 78); for LogEC50 (best-fit value): x = Log [Peptide] M, fits hit constraint or ambiguous
Protocol: (§4) Cell line identities were confirmed by STR profiling.
(§5) Peptides were titrated by serial dilution in MEB buffer (150 mM Mannitol, 10 mM HEPES-KOH pH 7.5, 50 mM KCl, 0.02 mM EGTA, 0.02 mM EDTA, 0.1% BSA and 5 mM Succinate) containing 20 μg/mL oligomycin, 50 μg/mL digitonin, 2 μM JC-1 and 10 mM 2-mercaptoethanol in 384-well plates. Controls for no depolarization (1% DMSO) and complete depolarization with the mitochondrial oxidative phosphorylation uncoupler FCCP (20 μM) were included for data normalization. […] 15 μL of cell suspension was added to each well containing 15 μL of treatment solution. […] To produce percent depolarization, the area under the resultant curve was calculated and normalized to the assay controls. Peptide titration curves were fit to sigmoidal dose-response curves using Graphpad PRISM seven to obtain EC50 values.

[4] = test system: BCR-ABL-expressing B-lineage acute lymphoblastic leukemia cells dependent on Bcl-2; assay: iBH3 profiling, cytochrome c release; type: cell-based; details: iBH3 fits Bcl-2, sigmoidal dose-response (variable slope); for LogEC50 (best-fit value): log of EC50, x axis Log [Peptide M]; for Bottom (best-fit value) / Top (best-fit value): fit of 3 replicates
Protocol: as §1, §2, §3

[5] = test system: BCR-ABL-expressing B-lineage acute lymphoblastic leukemia cells dependent on Bcl-xL; assay: iBH3 profiling, cytochrome c release; type: cell-based; details: iBH3 fits Bcl-xL, sigmoidal dose-response (variable slope); for LogEC50 (best-fit value): log of EC50, x axis Log [Peptide M]; for Bottom (best-fit value) / Top (best-fit value): fit of 3 replicates
Protocol: as §1, §2, §3

[6] = molecular target: T1, Bcl-2 (Homo sapiens, UniProt P10415); assay: Competition fluorescence polarization (anisotropy) with fluoresceinated BIM; type: binding
T1 construct: c-myc
Protocol: (§6) Plates were mixed at 23°C for 3 hr. Plates were read again at 24 to check equilibration. Experiments were done in at least triplicate.

[7] = molecular target: T2, Bcl-xL (Homo sapiens, UniProt Q07817); assay: as above; type: binding; details: competition FP source data; for Ki: mean of three replicates, values above 5 μM are reported as > 5 μM in the figures, read-out: mean Ki (M) Bcl-xL
T2 construct: c-myc
Protocol: as §6

[8] = test system: BCR-ABL-expressing B-lineage acute lymphoblastic leukemia cells dependent on Bfl-1; assay: BH3 profiling, mitochondrial depolarization (JC-1) in permeabilized cells; type: cell-based; set-up: key to Bottom (best-fit value) / Top (best-fit value): % depolarization, normalized to DMSO (0) and FCCP (100) controls; details: for mitochondrial depolarization pattern in BH3 profiling: 100 nM peptide, four cell lines engineered to depend on Bcl-2, Bcl-xL, Mcl-1 or Bfl-1, JC-1; for HillSlope (best-fit value) / Bottom (best-fit value) / Top (best-fit value) / LogEC50 (best-fit value): BH3 profiling fits Bfl-1, sigmoidal dose-response (variable slope); for Bottom (best-fit value): constraint Bottom < 5; for Top (best-fit value): constraint Top > 78; for LogEC50 (best-fit value): x = Log [Peptide] M, 55-56 Y values analyzed
Protocol: as §4, §5

[9] = iBH3 fits Bfl-1, sigmoidal dose-response (variable slope)
[10] = competition FP source data, mean of three replicates, values above 5 μM are reported as > 5 μM in the figures, read-out: mean Ki (M) Bcl-2
[11] = competition FP source data, replicate 1
[12] = competition FP source data, replicate 2
[13] = competition FP source data, replicate 3

T1 sequence (P10415 whole entry): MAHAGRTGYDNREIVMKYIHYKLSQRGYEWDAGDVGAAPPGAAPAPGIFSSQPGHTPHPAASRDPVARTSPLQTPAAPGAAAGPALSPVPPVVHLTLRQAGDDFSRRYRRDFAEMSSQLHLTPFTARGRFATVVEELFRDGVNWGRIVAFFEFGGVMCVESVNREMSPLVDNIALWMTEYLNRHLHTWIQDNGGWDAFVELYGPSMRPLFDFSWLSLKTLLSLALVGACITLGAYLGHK
T2 sequence (Q07817 whole entry): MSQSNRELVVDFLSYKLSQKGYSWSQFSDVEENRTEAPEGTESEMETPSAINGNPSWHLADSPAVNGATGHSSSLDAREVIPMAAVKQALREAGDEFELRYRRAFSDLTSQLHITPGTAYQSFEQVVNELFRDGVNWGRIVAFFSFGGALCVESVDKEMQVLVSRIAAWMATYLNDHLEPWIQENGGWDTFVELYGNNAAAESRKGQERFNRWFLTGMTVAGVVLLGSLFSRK

Ac-QWIREIAAGLRRFADILNAQVER-NH2 [FS3]
HillSlope (best-fit value) [1]: 4.529 | Bottom (best-fit value) [1]: 0.1359 | Top (best-fit value) [1]: 0.9781 | HillSlope (best-fit value) [2, 9]: 0.832 | Bottom (best-fit value) [2, 9]: ~ -46.09 | Top (best-fit value) [2, 9]: 0.9862 | cytochrome c release pattern in iBH3 [2]: selectively induced cytochrome c release only in Bfl-1 dependent cell lines | HillSlope (best-fit value) [3]: 0.8379 | Bottom (best-fit value) ([3]; constrained (0 < Bottom < 5 or Bottom < 5)): 4.876 | Top (best-fit value) [3]: ~ 100 | LogEC50 (best-fit value) [3]: -5.183 | LogEC50 (best-fit value) [4]: -5.822 | HillSlope (best-fit value) [4]: 2.312 | Bottom (best-fit value) [4]: 0.1754 | Top (best-fit value) [4]: 0.986 | LogEC50 (best-fit value) [5]: -5.617 | HillSlope (best-fit value) [5]: 1.589 | Bottom (best-fit value) [5]: 0.1375 | Top (best-fit value) [5]: 0.9805 | Ki [6, 10]: 2.06e-06 M | Ki (M) Bcl-2 [6, 11]: 1.85e-06 M | Ki (M) Bcl-2 [6, 12]: 2.41e-06 M | Ki (M) Bcl-2 [6, 13]: 1.93e-06 M | Ki [7]: 3.23e-07 M | Ki (M) Bcl-xL ([7]; replicate 1): 2.75e-07 M | Ki (M) Bcl-xL ([7]; replicate 2): 4.23e-07 M | Ki (M) Bcl-xL ([7]; replicate 3): 2.72e-07 M | mitochondrial depolarization pattern in BH3 profiling [8]: promoted depolarization only in Bfl-1 dependent cells | HillSlope (best-fit value) [8]: 0.653 | Bottom (best-fit value) [8]: 0.004086 | Top (best-fit value) [8]: 83.65 | LogEC50 (best-fit value) [8]: -8.381 | specificity in BH3 profiling ([8]; four engineered cell lines, FS3 statement holds for JC-1 BH3 profiling and iBH3): significant cross reactivity at 30 μM

Ac-QWVREIAAGLRLAADNVNAQLER-NH2 [FS1]
LogEC50 (best-fit value) ([1]; log of EC50, x axis Log [Peptide M]): -4.595 | HillSlope (best-fit value) [1]: 1.721 | Bottom (best-fit value) [1]: 0.09874 | Top (best-fit value) [1]: 0.9023 | LogEC50 (best-fit value) ([2]; iBH3 fits Bfl-1, log of EC50, x axis Log [Peptide M], sigmoidal dose-response (variable slope)): -6.521 | HillSlope (best-fit value) [2, 9]: 2.245 | Bottom (best-fit value) [2, 9]: 0.8808 | Top (best-fit value) [2, 9]: 0.9982 | cytochrome c release pattern in iBH3 [2]: selectively induced cytochrome c release only in Bfl-1 dependent cell lines | HillSlope (best-fit value) [3]: 0.346 | Top (best-fit value) [3]: 99.39 | LogEC50 (best-fit value) [3]: -4.985 | LogEC50 (best-fit value) [4]: -3.946 | HillSlope (best-fit value) [4]: 0.814 | Bottom (best-fit value) [4]: 0.1541 | Top (best-fit value) [4]: 1.46 | LogEC50 (best-fit value) [5]: ~ -4.446 | HillSlope (best-fit value) [5]: ~ 9.069 | Bottom (best-fit value) [5]: 0.1572 | Top (best-fit value) [5]: 0.461 | Ki [6, 10]: 5.31e-06 M | Ki (M) Bcl-2 [6, 11]: 8.37e-06 M | Ki (M) Bcl-2 [6, 12]: 4.66e-06 M | Ki (M) Bcl-2 [6, 13]: 2.9e-06 M | Ki ([6]; competition FP, 50 nM c-myc-tagged receptor + 25 nM fluoresceinated BIM, Tris pH 7.8, 23°C, 3 hr, mean ± SD of three replicates, read-out: Ki (nM) Bcl-2): > 5e-06 M | Ki [7]: 2.38e-06 M | Ki (M) Bcl-xL ([7]; replicate 1): 2.02e-06 M | Ki (M) Bcl-xL ([7]; replicate 2): 2.84e-06 M | Ki (M) Bcl-xL ([7]; replicate 3): 2.27e-06 M | mitochondrial depolarization pattern in BH3 profiling [8]: promoted depolarization only in Bfl-1 dependent cells | HillSlope (best-fit value) [8]: 0.8486 | Bottom (best-fit value) [8]: 1.325 | Top (best-fit value) [8]: 81.21 | LogEC50 (best-fit value) [8]: -7.974
